Source: ChEMBL document CHEMBL1153452, “Synthesis and in vitro affinities of various MDL 100907 derivatives as potential 18F-radioligands for 5-HT2A receptor imaging with PET” (Bioorg Med Chem, 2009)

What was measured:
[1] = target: T1, 5-hydroxytryptamine receptor 2A (Rattus norvegicus, UniProt P14842); assay: biochemical
physchem = details: Soerensen buffer
[2] = target: 5-hydroxytryptamine receptor 2B (Homo sapiens, UniProt P41595)
[3] = target: 5-hydroxytryptamine receptor 5A (Homo sapiens, UniProt P47898)
5-hydroxytryptamine receptor 5A, sequence (P47898 whole entry): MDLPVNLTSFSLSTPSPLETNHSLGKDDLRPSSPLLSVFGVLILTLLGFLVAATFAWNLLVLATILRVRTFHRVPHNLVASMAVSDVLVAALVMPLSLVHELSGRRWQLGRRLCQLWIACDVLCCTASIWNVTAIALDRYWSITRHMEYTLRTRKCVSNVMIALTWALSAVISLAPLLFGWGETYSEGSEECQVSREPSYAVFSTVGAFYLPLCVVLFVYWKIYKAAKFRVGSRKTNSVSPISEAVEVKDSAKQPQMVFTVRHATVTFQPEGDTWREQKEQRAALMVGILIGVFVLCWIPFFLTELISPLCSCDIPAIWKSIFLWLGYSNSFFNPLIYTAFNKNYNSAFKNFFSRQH

[4] = target: 5-hydroxytryptamine receptor 1D (Homo sapiens, UniProt P28221)
5-hydroxytryptamine receptor 1D, sequence (P28221 whole entry): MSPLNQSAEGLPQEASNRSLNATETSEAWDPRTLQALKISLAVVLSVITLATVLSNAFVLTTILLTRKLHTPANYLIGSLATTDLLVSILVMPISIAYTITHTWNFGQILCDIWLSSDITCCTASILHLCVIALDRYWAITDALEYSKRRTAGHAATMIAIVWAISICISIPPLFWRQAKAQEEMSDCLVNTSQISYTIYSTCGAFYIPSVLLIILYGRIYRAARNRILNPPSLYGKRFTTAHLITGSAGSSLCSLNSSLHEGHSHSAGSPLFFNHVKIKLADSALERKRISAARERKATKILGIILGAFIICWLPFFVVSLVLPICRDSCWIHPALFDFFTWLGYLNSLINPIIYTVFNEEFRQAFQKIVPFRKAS

[5] = target: 5-hydroxytryptamine receptor 6 (Homo sapiens, UniProt P50406)
[6] = target: Sodium-dependent serotonin transporter (Homo sapiens, UniProt P31645)
Sodium-dependent serotonin transporter, sequence (P31645 whole entry): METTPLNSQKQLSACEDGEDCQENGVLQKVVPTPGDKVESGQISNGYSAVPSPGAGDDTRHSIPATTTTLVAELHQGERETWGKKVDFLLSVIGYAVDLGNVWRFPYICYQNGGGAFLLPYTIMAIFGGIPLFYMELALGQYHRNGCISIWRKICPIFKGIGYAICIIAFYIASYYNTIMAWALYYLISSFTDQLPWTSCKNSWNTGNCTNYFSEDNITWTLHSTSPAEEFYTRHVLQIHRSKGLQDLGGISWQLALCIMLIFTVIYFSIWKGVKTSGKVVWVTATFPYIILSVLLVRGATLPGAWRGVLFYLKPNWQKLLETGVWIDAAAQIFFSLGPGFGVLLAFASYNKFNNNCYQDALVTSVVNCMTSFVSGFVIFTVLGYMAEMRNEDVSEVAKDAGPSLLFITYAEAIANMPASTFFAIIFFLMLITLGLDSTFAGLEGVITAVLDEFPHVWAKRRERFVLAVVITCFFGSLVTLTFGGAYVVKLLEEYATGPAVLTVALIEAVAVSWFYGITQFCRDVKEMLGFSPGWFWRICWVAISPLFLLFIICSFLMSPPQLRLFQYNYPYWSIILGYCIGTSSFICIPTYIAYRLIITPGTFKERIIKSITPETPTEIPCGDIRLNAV

[7] = target: Beta-3 adrenergic receptor (Homo sapiens, UniProt P13945)
Beta-3 adrenergic receptor, sequence (P13945 whole entry): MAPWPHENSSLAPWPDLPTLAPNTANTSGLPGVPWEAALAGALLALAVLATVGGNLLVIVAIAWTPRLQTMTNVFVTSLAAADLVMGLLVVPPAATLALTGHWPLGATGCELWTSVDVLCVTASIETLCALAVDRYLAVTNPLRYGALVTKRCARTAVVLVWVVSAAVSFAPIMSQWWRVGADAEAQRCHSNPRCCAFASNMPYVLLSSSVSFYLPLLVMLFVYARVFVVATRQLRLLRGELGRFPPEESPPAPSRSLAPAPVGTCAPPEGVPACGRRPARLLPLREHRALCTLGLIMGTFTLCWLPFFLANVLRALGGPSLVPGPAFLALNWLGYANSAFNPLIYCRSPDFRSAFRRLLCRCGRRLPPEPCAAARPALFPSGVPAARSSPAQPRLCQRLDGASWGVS

Histamine H1 receptor = Histamine H1 receptor (Homo sapiens, UniProt P35367)
D(1A) dopamine receptor = D(1A) dopamine receptor (Homo sapiens, UniProt P21728)
D(1A) dopamine receptor, sequence (P21728 whole entry): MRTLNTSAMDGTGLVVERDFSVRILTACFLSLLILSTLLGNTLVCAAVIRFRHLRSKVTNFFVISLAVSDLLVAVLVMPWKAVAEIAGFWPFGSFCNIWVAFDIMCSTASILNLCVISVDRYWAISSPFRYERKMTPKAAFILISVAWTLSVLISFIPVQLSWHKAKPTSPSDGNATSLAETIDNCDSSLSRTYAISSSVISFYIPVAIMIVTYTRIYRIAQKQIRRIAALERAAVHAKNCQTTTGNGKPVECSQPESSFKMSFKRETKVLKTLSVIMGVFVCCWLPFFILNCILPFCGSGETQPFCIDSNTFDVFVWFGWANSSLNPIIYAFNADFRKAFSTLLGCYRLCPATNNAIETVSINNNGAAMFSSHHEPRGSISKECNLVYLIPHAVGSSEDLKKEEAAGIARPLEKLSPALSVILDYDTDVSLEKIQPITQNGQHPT

[8] = target: Sodium-dependent dopamine transporter (Homo sapiens, UniProt Q01959)
Sodium-dependent dopamine transporter, sequence (Q01959 whole entry): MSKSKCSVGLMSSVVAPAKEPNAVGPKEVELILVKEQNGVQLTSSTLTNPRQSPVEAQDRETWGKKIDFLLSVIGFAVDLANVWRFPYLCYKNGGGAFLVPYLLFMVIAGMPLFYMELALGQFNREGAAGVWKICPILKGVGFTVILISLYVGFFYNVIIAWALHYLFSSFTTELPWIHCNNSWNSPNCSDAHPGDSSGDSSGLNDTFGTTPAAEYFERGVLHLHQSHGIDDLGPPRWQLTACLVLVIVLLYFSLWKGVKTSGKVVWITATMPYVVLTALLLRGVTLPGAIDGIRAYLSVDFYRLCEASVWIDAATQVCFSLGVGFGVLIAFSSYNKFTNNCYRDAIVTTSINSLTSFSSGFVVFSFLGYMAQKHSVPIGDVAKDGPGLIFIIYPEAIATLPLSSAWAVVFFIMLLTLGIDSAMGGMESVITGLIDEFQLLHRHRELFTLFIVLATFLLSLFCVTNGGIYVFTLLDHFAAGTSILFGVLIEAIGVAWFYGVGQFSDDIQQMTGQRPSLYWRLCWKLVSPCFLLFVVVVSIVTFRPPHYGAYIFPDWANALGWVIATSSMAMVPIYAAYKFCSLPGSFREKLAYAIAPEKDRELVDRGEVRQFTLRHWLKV

[9] = target: Alpha-2C adrenergic receptor (Homo sapiens, UniProt P18825)
Histamine H3 receptor = Histamine H3 receptor (Homo sapiens, UniProt Q9Y5N1)
Histamine H3 receptor, sequence (Q9Y5N1 whole entry): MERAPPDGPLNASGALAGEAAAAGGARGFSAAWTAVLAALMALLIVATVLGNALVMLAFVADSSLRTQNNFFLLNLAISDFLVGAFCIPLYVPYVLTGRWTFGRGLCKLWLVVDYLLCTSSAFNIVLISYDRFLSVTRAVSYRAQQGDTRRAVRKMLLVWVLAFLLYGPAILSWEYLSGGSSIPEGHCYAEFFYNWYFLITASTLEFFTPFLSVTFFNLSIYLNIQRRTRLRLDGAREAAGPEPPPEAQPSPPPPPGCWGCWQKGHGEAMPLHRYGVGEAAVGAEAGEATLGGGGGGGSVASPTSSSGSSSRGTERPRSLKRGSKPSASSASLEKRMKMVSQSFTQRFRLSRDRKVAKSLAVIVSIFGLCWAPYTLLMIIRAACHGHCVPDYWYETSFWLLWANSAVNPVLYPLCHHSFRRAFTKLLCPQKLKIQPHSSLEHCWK

Mu-type opioid receptor = Mu-type opioid receptor (Homo sapiens, UniProt P35372)
Mu-type opioid receptor, sequence (P35372 whole entry): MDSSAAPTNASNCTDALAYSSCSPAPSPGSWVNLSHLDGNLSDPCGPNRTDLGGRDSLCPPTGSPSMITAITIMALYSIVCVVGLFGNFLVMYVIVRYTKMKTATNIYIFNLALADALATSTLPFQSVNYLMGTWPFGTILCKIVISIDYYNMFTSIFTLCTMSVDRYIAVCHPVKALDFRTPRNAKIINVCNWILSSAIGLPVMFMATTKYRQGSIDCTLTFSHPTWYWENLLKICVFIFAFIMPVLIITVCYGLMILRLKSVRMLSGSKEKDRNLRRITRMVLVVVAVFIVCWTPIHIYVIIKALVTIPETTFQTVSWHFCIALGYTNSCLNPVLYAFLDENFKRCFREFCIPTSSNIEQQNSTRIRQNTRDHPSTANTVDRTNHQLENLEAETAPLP

D(2) dopamine receptor [10] = target: T2, D(2) dopamine receptor (Homo sapiens, UniProt P14416)
Histamine H2 receptor = Histamine H2 receptor (Homo sapiens, UniProt P25021)
Histamine H2 receptor, sequence (P25021 whole entry): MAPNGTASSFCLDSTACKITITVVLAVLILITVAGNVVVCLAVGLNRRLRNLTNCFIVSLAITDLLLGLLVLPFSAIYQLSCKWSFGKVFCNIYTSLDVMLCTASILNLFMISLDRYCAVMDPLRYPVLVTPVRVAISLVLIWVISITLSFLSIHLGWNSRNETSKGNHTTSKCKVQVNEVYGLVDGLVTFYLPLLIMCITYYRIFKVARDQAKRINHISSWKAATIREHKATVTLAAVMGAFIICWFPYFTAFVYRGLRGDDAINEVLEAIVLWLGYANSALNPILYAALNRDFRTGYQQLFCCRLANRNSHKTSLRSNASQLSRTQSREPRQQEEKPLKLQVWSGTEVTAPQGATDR

[11] = target: T3, Alpha-2A adrenergic receptor (Homo sapiens, UniProt P08913)
T3 sequence (P08913 whole entry): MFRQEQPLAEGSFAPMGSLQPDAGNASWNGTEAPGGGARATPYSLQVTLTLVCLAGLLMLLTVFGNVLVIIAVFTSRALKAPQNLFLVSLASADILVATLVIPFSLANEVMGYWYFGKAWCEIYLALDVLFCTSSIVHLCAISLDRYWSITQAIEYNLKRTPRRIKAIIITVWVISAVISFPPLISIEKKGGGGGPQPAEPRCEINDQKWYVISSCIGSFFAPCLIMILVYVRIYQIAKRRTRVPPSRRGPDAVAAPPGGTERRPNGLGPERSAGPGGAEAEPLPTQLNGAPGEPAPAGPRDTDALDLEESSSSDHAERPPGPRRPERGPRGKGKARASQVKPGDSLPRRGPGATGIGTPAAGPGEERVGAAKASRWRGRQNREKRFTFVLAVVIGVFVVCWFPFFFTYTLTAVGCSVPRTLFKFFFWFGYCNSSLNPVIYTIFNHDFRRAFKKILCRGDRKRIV

D(4) dopamine receptor = D(4) dopamine receptor (Homo sapiens, UniProt P21917)
D(4) dopamine receptor, sequence (P21917 whole entry): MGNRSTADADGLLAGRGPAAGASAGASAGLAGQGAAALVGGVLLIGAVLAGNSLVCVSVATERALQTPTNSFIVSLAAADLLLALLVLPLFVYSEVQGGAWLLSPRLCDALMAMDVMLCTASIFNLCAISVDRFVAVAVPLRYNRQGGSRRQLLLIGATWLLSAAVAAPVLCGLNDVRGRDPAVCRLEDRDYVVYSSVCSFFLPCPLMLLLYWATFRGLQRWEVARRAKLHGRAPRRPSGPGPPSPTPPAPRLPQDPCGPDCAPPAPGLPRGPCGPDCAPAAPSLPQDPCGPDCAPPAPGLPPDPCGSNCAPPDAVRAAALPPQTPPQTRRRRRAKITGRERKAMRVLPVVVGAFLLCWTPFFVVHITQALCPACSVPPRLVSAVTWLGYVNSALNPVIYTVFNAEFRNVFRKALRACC

[12] = target: T4, Alpha-1B adrenergic receptor (Homo sapiens, UniProt P35368)
T4 sequence (P35368 whole entry): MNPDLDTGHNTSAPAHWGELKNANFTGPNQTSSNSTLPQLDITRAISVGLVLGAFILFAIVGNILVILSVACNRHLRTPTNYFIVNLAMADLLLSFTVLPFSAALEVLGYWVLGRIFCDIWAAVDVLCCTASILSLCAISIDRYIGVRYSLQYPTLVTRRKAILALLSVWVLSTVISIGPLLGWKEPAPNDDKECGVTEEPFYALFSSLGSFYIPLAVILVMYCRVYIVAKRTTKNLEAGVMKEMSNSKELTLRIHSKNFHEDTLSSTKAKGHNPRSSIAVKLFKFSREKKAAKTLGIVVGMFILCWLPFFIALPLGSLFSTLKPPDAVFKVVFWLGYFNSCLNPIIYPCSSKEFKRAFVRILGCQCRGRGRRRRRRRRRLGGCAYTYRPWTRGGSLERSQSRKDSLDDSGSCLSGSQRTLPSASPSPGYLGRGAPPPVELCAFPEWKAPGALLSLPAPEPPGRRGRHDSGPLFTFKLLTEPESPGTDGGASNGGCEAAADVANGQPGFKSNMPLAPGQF

D(2) dopamine receptor [13] = target: T2, D(2) dopamine receptor; assay: Binding affinity to dopamine D2 receptor by competitive binding experiment
[14] = target: T1, 5-hydroxytryptamine receptor 2A; assay: Displacement of [3H]altanserine from rat cortical membrane 5HT2A receptor
D(1B) dopamine receptor = D(1B) dopamine receptor (Homo sapiens, UniProt P21918)
[15] = target: Alpha-1A adrenergic receptor (Homo sapiens, UniProt P35348)

5-hydroxytryptamine receptor 2B, sequence (P41595 whole entry): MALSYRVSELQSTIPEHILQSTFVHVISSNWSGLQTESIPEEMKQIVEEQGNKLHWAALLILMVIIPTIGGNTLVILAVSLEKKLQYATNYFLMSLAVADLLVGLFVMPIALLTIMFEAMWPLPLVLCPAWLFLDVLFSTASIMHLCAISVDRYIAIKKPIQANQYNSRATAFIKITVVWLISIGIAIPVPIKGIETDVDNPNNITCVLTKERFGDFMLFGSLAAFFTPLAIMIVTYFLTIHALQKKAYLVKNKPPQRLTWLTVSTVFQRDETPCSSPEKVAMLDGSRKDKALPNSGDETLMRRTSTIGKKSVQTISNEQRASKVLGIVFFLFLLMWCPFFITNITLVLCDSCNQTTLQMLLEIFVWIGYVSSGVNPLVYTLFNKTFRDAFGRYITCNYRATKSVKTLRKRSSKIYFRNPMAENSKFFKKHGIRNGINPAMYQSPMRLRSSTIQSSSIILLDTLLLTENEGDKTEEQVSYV

SMILES | Ki [1] [nM] | logP (physchem) | Ki [2] [nM] | Ki [3] [nM] | Ki [4] [nM] | Ki [5] [nM] | further results
COc1cccc(C(O)C2CCN(CCc3ccc(C)cc3)CC2)c1OC (configuration not stated) | 0.31 | – | – | – | – | – | –
COc1c(O)cccc1C(O)C1CCN(CCc2ccc([N+](=O)[O-])cc2)CC1 (configuration not stated) | – | 1.9 | – | – | – | – | –
COc1cccc([C@H](O)C2CCN(CCc3ccc(F)cc3)CC2)c1OC [VOLINANSERIN] | – | 2.98 | – | – | – | – | –
COc1ccc(CCN2CCC(C(O)c3cccc(OCCF)c3OC)CC2)cc1 (configuration not stated) | 59 | 2.72 | 2750 | > 10000 | > 10000 | > 10000 | –
COc1cccc(C(O)C2CCN(CCc3ccc([N+](=O)[O-])cc3)CC2)c1OC (configuration not stated) | 90 | – | – | – | – | – | –
COc1c(OCCF)cccc1C(O)C1CCN(CCc2ccc([N+](=O)[O-])cc2)CC1 (configuration not stated) | 26 | 2.37 | 1840 | > 10000 | 3420 | > 10000 | –
COc1c(OCCF)cccc1C(O)C1CCN(CCc2ccc(F)cc2)CC1 (configuration not stated) | – | 2.8 | 299 | > 10000 | 706 | 3890 | Ki [6]: 3520 nM; Ki [7]: > 10000 nM; Ki (Histamine H1 receptor): 374 nM; Ki (D(1A) dopamine receptor): 899 nM; Ki [8]: > 10000 nM; Ki [9]: 148 nM; Ki (Histamine H3 receptor): > 10000 nM; Ki (Mu-type opioid receptor): > 10000 nM; Ki (D(2) dopamine receptor [10]): > 10000 nM; Ki (Histamine H2 receptor): 3180 nM; Ki [11]: > 10000 nM; Ki (D(4) dopamine receptor): 544 nM; Ki [12]: 325 nM
COc1c(OCCF)cccc1C(O)C1CCN(CCc2ccccc2)CC1 (configuration not stated) | 1.63 | 2.92 | – | – | – | – | –
COc1c(O)cccc1C(O)C1CCN(CCc2ccc(F)cc2)CC1 (configuration not stated) | 1.24 | 2.27 | – | – | – | – | –
COc1c(O)cccc1C(=O)C1CCN(CCc2ccc(F)cc2)CC1 | 1.34 | – | – | – | – | – | –
O=C(c1ccc(F)cc1)C1CCN(CCn2c(=S)[nH]c3ccccc3c2=O)CC1 [ALTANSERIN] | 0.72 | 2.15 | – | – | – | – | Ki (D(2) dopamine receptor [13]): 62 nM; Ki [14]: 0.13 nM
COc1c(OCCF)cccc1C(O)C1CCN(C(=O)Cc2ccccc2)CC1 (configuration not stated) | 1990 | 1.57 | – | – | – | – | –
COc1c(OCCF)cccc1C(=O)C1CCN(CCc2ccc(F)cc2)CC1 | 3.23 | 3.08 | 960 | 1580 | 713 | > 10000 | Ki [6]: 3090 nM; Ki [7]: > 10000 nM; Ki (Histamine H1 receptor): 944 nM; Ki (D(1A) dopamine receptor): 1410 nM; Ki [8]: > 10000 nM; Ki [9]: 333 nM; Ki (D(1B) dopamine receptor): 7400 nM; Ki (Histamine H3 receptor): > 10000 nM; Ki [15]: 146 nM; Ki (Mu-type opioid receptor): > 10000 nM; Ki (D(2) dopamine receptor [10]): 3830 nM; Ki (Histamine H2 receptor): 1760 nM; Ki [11]: 863 nM; Ki (D(4) dopamine receptor): 174 nM; Ki [12]: 550 nM
COc1c(OCCF)cccc1C(O)C1CCN(CCc2ccc(N)cc2)CC1 (configuration not stated) | 2.06 | – | – | – | – | – | –
COc1ccc(CCN2CCC(C(=O)c3cccc(OCCF)c3OC)CC2)cc1 | 153 | 3.02 | 1970 | > 10000 | 1440 | > 10000 | –
COc1ccc(CCN2CCC(C(O)c3cccc(OC)c3OC)CC2)cc1 (configuration not stated) | 55 | – | – | – | – | – | –
COc1c(O)cccc1[C@H](O)C1CCN(CCc2ccc(F)cc2)CC1 | 0.25 | – | – | – | – | – | –
COc1cccc(C(O)C2CCN(Cc3ccc(F)cc3)CC2)c1OC (configuration not stated) | > 1000 | – | – | – | – | – | –
COc1c(OCCF)cccc1C(=O)C1CCN(CCc2ccc([N+](=O)[O-])cc2)CC1 | 118 | 2.71 | 1050 | > 10000 | 1830 | > 10000 | –
COc1c(OCCF)cccc1[C@H](O)C1CCN(CCc2ccc(F)cc2)CC1 | 0.72 | 2.8 | 320 | 6810 | 1060 | 3840 | Ki [6]: 2210 nM; Ki [7]: > 10000 nM; Ki (Histamine H1 receptor): 509 nM; Ki (D(1A) dopamine receptor): 3830 nM; Ki [8]: > 10000 nM; Ki (D(1B) dopamine receptor): 7420 nM; Ki (Histamine H3 receptor): > 10000 nM; Ki [15]: 335 nM; Ki (Mu-type opioid receptor): > 10000 nM; Ki (D(2) dopamine receptor [10]): 2690 nM; Ki (Histamine H2 receptor): 2430 nM; Ki [11]: > 10000 nM; Ki (D(4) dopamine receptor): 442 nM; Ki [12]: 500 nM
